What is called MIC is the lowest concentration found to suppress growth.

≈ marks a conversion by molar mass, not a printed value.

Data set [1] is classed as physicochemical. The procedure: Eine Lösung von 0,5 g 3-Dimethylaminomethylenamino-Rifamycin S in 5 ml Methanol wird mit 2 ml einer 10 % (G/V) wässerigen Natriumbicarbonatlösung und 5 ml einer 10 % (G/V) Lösung von K4[Fe(CN)6] Kaliumferrocyanid) in Wasser versetzt, die Lösung 3 Minuten intensiv gerührt und mit je 20 ml Wasser und Chloroform verdünnt. Die Chloroformphase wird abgetrennt und die wässerige Phase noch zweimal mit Chloroform extrahiert. Die vereinigten Chloroformextrakte werden getrocknet und eingedampft, wodurch 3-Dimethylaminomethylenamino-Rifamycin SV als gelbes Pulver resultiert.

Data set [2] is classed as physicochemical. The procedure:
Eine unter Stickstoff gerührte Suspension von 15,50 g 4-Dimethylamino-imidazolo[4,5-c]rifamycin SV (1) in 150 ml Wasser wird tropfenweise mit 20,0 ml einer 1-N-wässrigen Natriumhydroxid-Lösung (0,987 Aequivalent) versetzt. Die resultierende gelbgefärbte Lösung wird filtriert und das Filtrat der Gefriertrocknung unterworfen. […] Für C40H51N4O11Na (MG 786,85) berechnet 2,92% Na; gefunden 2,87% Na.
Eine gerührte Suspension von 8,75 g 4-(4-Isobutylpiperazinyl)-imidazolo[4,5-c]rifamycin SV (4) in 165 ml Wasser wird mit 10,0 ml 1-normaler wässriger Salzsäure (0,985 Aequivalent) versetzt. Das Gemisch wird filtriert, und das Filtrat der Gefriertrocknung unterworfen. Das erhaltene 4-(4-Isobutylpiperazinyl)-imidazolo[4,5-c]rifamycin SV-Hydrochlorid bildet ein wasserlösliches, gelbes amorphes Pulver. Für C46H63N5O11 · HC1 (898,49) berechnet: 3,95% Cl, gefunden: 4,08% Cl.
This is another data set of the same source.

The subject of data set [3] is Mycobacterium tuberculosis. As to the kind of experiment: Agar dilution MIC in DST agar (Ericsson and Sherris). The note with it: Mycobacterium tuberculosis, in vitro, read-out: MIC Myc. tub. It is filed as cell-based. Background: Agar dilution tests growth on a series of plates holding different concentrations.
Data set [4] has as its system Staphylococcus aureus 10B. Described as above. It is filed as cell-based. The note with it: Staphylococcus aureus, 10B, in vitro, read-out: MIC Staph. 10B. In outline:
(§1)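 Read-out: minimal growth-inhibiting concentration (MIC), µg/ml. Compounds tested in vitro by agar dilution; endpoint is lowest level that still prevents visible growth.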

Data set [5] deals with Staphylococcus aureus 2999. Described as above. Format: cell-based. The note with it: Staphylococcus aureus, 2999, in vitro, read-out: MIC Staph. 2999. In short, it runs like this:
as §1

For a further data set, the system named is Escherichia coli 2018. Described as above. Format: cell-based. As to conditions: Escherichia coli, 2018, in vitro, read-out: MIC Esch. 2018. In outline:
as §1

For a further data set, the system named is Escherichia coli 205. The data set is described as above. It is filed as cell-based. As to conditions: Escherichia coli, 205, in vitro, read-out: MIC Esch. 205. In short, it runs like this: as §1
The subject of data set [6] is Salmonella Typhimurium 277. Described as above. It is filed as cell-based. The note with it: Salmonella enterica, TYPHIMURIUM, in vitro, read-out: MIC Salm. 277. In outline:
as §1

In the next data set the test system is Proteus morganii 2359. Described as above. It is filed as cell-based. As to conditions: Morganella morganii, 2359, in vitro, read-out: MIC Prot. 2359. In short, it runs like this: as §1
The subject of data set [7] is Pseudomonas aeruginosa K 799/61. Described as above. The note with it: Pseudomonas aeruginosa, K799/61, read-out: MIC Pseu. 799. It is filed as cell-based. In outline: as §1
The next data set relates to Proteus morganii 1518. Described as above. Format: cell-based. As to conditions: Morganella morganii, 1518, in vitro, read-out: MIC Prot. 1518. In outline:
as §1

A further data set concerns Staphylococcus aureus. As to the kind of experiment: In vitro antibacterial activity against gram-positive cocci. Format: cell-based. The note with it: at (at or below) the lowest limit of the tested concentration range, 0,005 y/ml. An excerpt:
(§2) Die neuen erfindungsgemässen Verbindungen der Formel I zeichnen sich vor allem durch ihre wertvollen pharmakologischen Eigenschaften aus: so besitzen sie gemäss den Resultaten in vitro antibiotische, insbesondere antibakterielle Eigenschaften, wie z.B. einerseits gegen grammpositive Kokken, wie Staphylococcus aureus, (im getesteten Konzentrationsbereich 0,005 bis 128 y/ml),andererseits gegen grammnegative Stäbchenbakterien, wie Enterobacteriaceae, z.B. Escherichia coli, Pseudomonas aeruginosa und Proteus morganii (im getesteten Konzentrationsbereich von 1 bis 64 y/ml), sowie gegen Mycobacterium tuberculosis (im getesteten Konzentrationsbereich von 0,48 bis 1,9 y/ml). […] (Für die Testresultate siehe auch Tabelle -1.)
(§3) Auch die neuen erfindungsgemässen Verbindungen der Formeln V und VI zeichnen sich durch analoge wertvolle pharmakologische Eigenschaften aus, d.h. sie besitzen gemäss den Resultaten in vitro antibiotische, insbesondere antibakterielle Eigenschaften, die sich bezüglich des Anwendungsbereichs sowie der getesteten effektiven Konzentrationen den Verbindungen der Formel I praktisch gleichen. […] (Für die Testresultate siehe auch Tabelle 2.)

Data set [8] has as its system Enterobacteriaceae, z.B. Escherichia coli, Pseudomonas aeruginosa und Proteus morganii. In words: In vitro antibacterial activity against gram-negative rods. Format: cell-based. As to conditions: within the stated concentration range, 1 bis 64 y/ml.
Description: as §2, §3

Take “3-Dimethylaminomethylenamino-Rifamycin SV [Beispiel 78A]”: in [1], the “Stabilität beim Stehen in einer Lösung” value is on record as “sehr schnell wieder zum Chinon durch Luftsauerstoffoxidation umgewandelt”.

For the molecule “4-Dimethylamino-imidazolo[4,5-c]rifamycin SV-Natriumsalz”, the “Löslichkeit in Wasser” value in data set [2] is given as “in Wasser klar lösliches”.

Regarding `COC1C=COC2(C)Oc3c(C)c(O)c4c(O)c(c5[nH]c(N6CCN(CC(C)C)CC6)nc5c4c3C2=O)NC(=O)C(C)=CC=CC(C)C(O)C(C)C(O)C(C)C(OC(C)=O)C1C.Cl` (centres unmarked) [4-(4-Isobutylpiperazinyl)-imidazolo[4,5-c]rifamycin SV-Hydrochlorid], the “Löslichkeit in Wasser” value in [2] is “wasserlösliches”.

Turning to `COC1C=COC2(C)Oc3c(C)c(O)c4c(O)c(c5nc(N6CCN(CC(C)C)CC6)[nH]c5c4c3C2=O)NC(=O)C(C)=CC=CC(C)C(O)C(C)C(O)C(C)C(OC(C)=O)C1C` (centres unmarked) [Verbindung 4, 4-(4-Isobutylpiperazinyl)-imidazolo[4,5-c]rifamycin SV], the MIC worked out at 0.97 µg/mL (≈ 1.13 µM) in data set [3]; 0.005 µg/mL (≈ 0.0058 µM) in [4]; 0.005 µg/mL (≈ 0.0058 µM) in [5]; 4 µg/mL (≈ 4.64 µM) with Escherichia coli 2018; 4 µg/mL (≈ 4.64 µM) in the data set with Escherichia coli 205; 8 µg/mL (≈ 9.28 µM) in data set [6]. Besides, the minimal inhibitory concentration (MIC) came to 4 µg/mL (≈ 4.64 µM) with Proteus morganii 2359, 8 µg/mL (≈ 9.28 µM) in data set [7] and 4 µg/mL (≈ 4.64 µM) in the data set on Proteus morganii 1518. In the data set on Staphylococcus aureus, the “Hemmwirkung auf Staphylococcus aureus” value is “deutliche Hemmwirkung”. Also, in data set [8], the “Hemmung der Enterobacterien” value is “wirksam hemmen”.

The record behind these values is patent EP0049683A2, “Imidazo-rifamycines, process for their preparation, pharmaceutical preparations containing them and their use” (CIBA-GEIGY AG, priority 1980, dated 1982).
